From patent publication US8338422B2, “Indolin-2-ones and aza-indolin-2-ones” (Janssen Pharmaceutica NV, priority 2007, dated 2012) come the findings set out here.

For one assay, the system named is DU-145. Kind of assay: Cellular proliferation assay (Alamar blue), DU-145. It is filed as cell-based. The note with it: DU-145 cells, 72 hours with compound, 10% FCS; for IC50: Homo sapiens, read-out: pIC50 DU-145 (converted). How it is done:
(§1) […] functional properties of these compounds was tested in cellular proliferation assays on a panel of different cell lines in the presence of 10% FCS serum (37° C. and 5% (v/v) CO2). In a first step these cells were seeded and incubated for 24 hours in the absence of compound. In the second step the cells were incubated for 72 hours with the compounds to be tested for 72 hours. The viable cell number was finally assessed in a standard Alamar blue cell viability assay.
(§2) The viable cell number was assessed by incubation for either 4 h (HCT-116, H1299, H460) 6 h (SKOV3, HT29, U87-MG, Colo205) or 24 h (A2780, PC3, MDA-MB-231, A549, MCF-7) with Alamar blue (Resazurin 9 μg/ml, K-Ferrocyanide 90 μM K-Ferricyanide 90 μM) and the converted fluorescent product was quantified on a fluorescent plate readed (544 nm/590 nm). Effect of the compounds is calculated as of on control cells.

Another assay has as its system SKOV3. The assay can be described thus: Cellular proliferation assay (Alamar blue), SKOV3. It is filed as cell-based. The note with it: 72 hours with compound, 10% FCS; for IC50: Homo sapiens, SK-OV-3, SKOV3 cells, read-out: pIC50 SKOV3 (converted); for pIC50 SKOV3: SKOV3 cells. How it is done:
as §1, §2

The test system of a further assay is U87MG. Kind of assay: Cellular proliferation assay (Alamar blue), U87MG. It is filed as cell-based. Particulars: Homo sapiens, U-87 MG, 72 h, U87MG cells, 72 hours with compound, 10% FCS, read-out: pIC50 U87MG (converted). In outline:
(§3)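 Proliferation was assessed over 72 h of compound treatment, following 24 h of seeding without compound, under 10% FCS, 37° C. and 5% CO2. Fluorescent resazurin product was measured and compared with control cells.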

A further assay has as its target AuroraB (h) (Homo sapiens, UniProt Q96GD4). Kind of assay: Aurora-B human kinase assay (SPA). Type of assay: biochemical. Particulars: for IC50: read-out: AuroraB pIC50 (converted). An outline of the steps:
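33P-phosphorylated biotin-substrate captured on streptavidin PVT SPA beads after EDTA-containing stop and imaged on Leadseeker. Reaction: 60 min at room temperature, Hepes pH 7.5 with Mg2+/Mn2+. Conditions: 0.5 μM ATP plus 2.2 nM [γ-33P]ATP, 3 μM substrate, 0.5 μg/ml human AuroraB.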

The test system of another assay is MDA/MB231. The assay can be described thus: Cellular proliferation assay (Alamar blue), MDA/MB231. Particulars: Homo sapiens, MDA-MB-231, 72 h, MDA/MB231 cells, 72 hours with compound, 10% FCS, read-out: pIC50 MDA/MB231 (converted). It is filed as cell-based. An outline of the steps:
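Viable cell number was assessed by resazurin-based Alamar blue fluorescence (544 nm/590 nm) after 72 h compound exposure in 10% FCS at 37° C, which followed a 24 h compound-free seeding period. Dye incubation was 24 h for MDA-MB-231 and 4 h for H460; results expressed versus control cells.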

The next assay has as its system HCT-116. Kind of assay: Cellular proliferation assay (Alamar blue), HCT-116. The note with it: Homo sapiens, HCT-116, 72 h, HCT-116 cells, 72 hours with compound, 10% FCS, read-out: pIC50 HCT-116 (converted). Type of assay: cell-based. An outline of the steps:
as §3

A further assay concerns MCF-7. The assay can be described thus: Cellular proliferation assay (Alamar blue), MCF-7. Type of assay: cell-based. Particulars: 72 hours with compound, 10% FCS; for IC50: Homo sapiens, MCF7, MCF-7 cells, read-out: pIC50 MCF-7 (converted); for pIC50 MCF-7: MCF-7 cells. How it is done:
as §1, §2

A further assay has as its system SK-N-SH. Kind of assay: Cellular proliferation assay (Alamar blue), SK-N-SH. Particulars: SK-N-SH cells, 72 hours with compound, 10% FCS; for IC50: Homo sapiens, read-out: pIC50 SK-N-SH (converted). Type of assay: cell-based. How it is done: as §1, §2
The subject of a further assay is A431. Kind of assay: Cellular proliferation assay (Alamar blue), A431. Type of assay: cell-based. The note with it: 72 hours with compound, 10% FCS; for IC50: Homo sapiens, A-431, A431 cells, read-out: pIC50 A431 (converted); for pIC50 A431: A431 cells. How it is done:
as §1, §2

The next assay concerns the target PLK4 (h) (Homo sapiens, UniProt O00444). Kind of assay: PLK-4 human kinase assay (SPA). The note with it: for IC50: read-out: PLK4 pIC50 (converted). It is filed as biochemical. In outline: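 Radiometric readout: 33P-labelled peptide captured on streptavidin SPA beads after EDTA stop, imaged by Leadseeker. Reaction ran 60 min at room temperature in Hepes pH 8.0 buffer. It contained 1 μM ATP with 2 nM [γ-33P]ATP, 10 μM biotinylated peptide and PLK4 (h) at 19 μg/ml.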

For another assay, the system named is HT-29. Kind of assay: Cellular proliferation assay (Alamar blue), HT-29. It is filed as cell-based. Particulars: HT-29 cells, 72 hours with compound, 10% FCS; for IC50: Homo sapiens, read-out: pIC50 HT-29 (converted). How it is done:
as §1, §2

The next assay relates to H460. The assay can be described thus: Cellular proliferation assay (Alamar blue), H460. Type of assay: cell-based. The note with it: 72 hours with compound, 10% FCS; for IC50: Homo sapiens, NCI-H460, H460 cells, read-out: pIC50 H460 (converted); for pIC50 H460: H460 cells. How it is done: as §1, §2
The test system of a further assay is Colo205. The assay can be described thus: Cellular proliferation assay (Alamar blue), Colo205. Type of assay: cell-based. The note with it: 72 hours with compound, 10% FCS; for IC50: Homo sapiens, COLO 205, Colo205 cells, read-out: pIC50 Colo205 (converted); for pIC50 Colo205: Colo205 cells. How it is done: as §1, §2
The subject of another assay is A549. Kind of assay: Cellular proliferation assay (Alamar blue), A549. Particulars: A549 cells, 72 hours with compound, 10% FCS; for IC50: Homo sapiens, read-out: pIC50 A549 (converted). It is filed as cell-based. How it is done:
as §1, §2

In a further assay the test system is PC-3. The assay can be described thus: Cellular proliferation assay (Alamar blue), PC-3. It is filed as cell-based. Particulars: PC-3 cells, 72 hours with compound, 10% FCS; for IC50: Homo sapiens, PC-3, 72 h, read-out: pIC50 PC-3 (converted). An outline of the steps:
as §3

The next assay deals with A2780. The assay can be described thus: Cellular proliferation assay (Alamar blue), A2780. Particulars: Homo sapiens, A2780, 72 h, A2780 cells, 72 hours with compound, 10% FCS, read-out: pIC50 A2780 (converted). Type of assay: cell-based. In outline: as §3
For another assay, the target named is GSK3β (h) (Homo sapiens, UniProt P49841). The assay can be described thus: GSK-3β human kinase assay (SPA). It is filed as biochemical. An outline of the steps: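 Radiometric SPA read-out: after EDTA stop, biotinylated 33P-labelled peptide bound streptavidin PVT beads and was imaged on Leadseeker. Reaction: 60 min, room temperature, GSK3β (h) at 1 μg/ml, 1 μM substrate peptide, 1 μM ATP with 2 nM [γ-33P]ATP, Tris pH 7.4/MgCl2/DTT buffer.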
Sequence of GSK3β (h) (P49841 whole entry): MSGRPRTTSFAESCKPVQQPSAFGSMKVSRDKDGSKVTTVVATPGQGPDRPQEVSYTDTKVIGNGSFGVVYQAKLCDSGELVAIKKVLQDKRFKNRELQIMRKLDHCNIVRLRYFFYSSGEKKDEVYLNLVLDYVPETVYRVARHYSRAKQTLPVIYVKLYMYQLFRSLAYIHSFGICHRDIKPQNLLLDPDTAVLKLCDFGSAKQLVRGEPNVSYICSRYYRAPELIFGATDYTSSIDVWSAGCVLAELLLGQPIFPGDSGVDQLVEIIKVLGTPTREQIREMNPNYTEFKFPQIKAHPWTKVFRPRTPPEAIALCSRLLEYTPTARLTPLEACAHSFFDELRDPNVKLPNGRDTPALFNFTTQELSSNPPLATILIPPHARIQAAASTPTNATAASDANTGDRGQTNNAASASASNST

The next assay concerns the target CDK1/CyclinB (h) (Homo sapiens, UniProt P06493). Kind of assay: CDK1/CyclinB human kinase assay (FRET). Type of assay: biochemical. An outline of the steps: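 Kinase activity was read as the 460/538 nm emission ratio after protease cleavage of unphosphorylated peptide (60 min development). The reaction ran 60 min at room temperature with 10 μM ATP, 2 μM Ser/Thr peptide 12 and 0.2 μg/ml enzyme in Hepes pH 7.5 buffer with MgCl2, EGTA, Brij-35.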

Molecules are shown by their SMILES.

Sequence of AuroraB (h) (Q96GD4 whole entry): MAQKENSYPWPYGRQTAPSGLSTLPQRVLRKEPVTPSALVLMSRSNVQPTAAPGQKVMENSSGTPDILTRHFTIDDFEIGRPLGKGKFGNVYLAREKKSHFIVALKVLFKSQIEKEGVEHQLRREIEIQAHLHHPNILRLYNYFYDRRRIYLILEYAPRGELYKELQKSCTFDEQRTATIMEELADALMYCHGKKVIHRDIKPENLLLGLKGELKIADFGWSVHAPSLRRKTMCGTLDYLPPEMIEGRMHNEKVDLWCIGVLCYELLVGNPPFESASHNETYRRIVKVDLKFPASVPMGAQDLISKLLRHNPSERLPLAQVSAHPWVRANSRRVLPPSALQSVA
Sequence of PLK4 (h) (O00444 whole entry): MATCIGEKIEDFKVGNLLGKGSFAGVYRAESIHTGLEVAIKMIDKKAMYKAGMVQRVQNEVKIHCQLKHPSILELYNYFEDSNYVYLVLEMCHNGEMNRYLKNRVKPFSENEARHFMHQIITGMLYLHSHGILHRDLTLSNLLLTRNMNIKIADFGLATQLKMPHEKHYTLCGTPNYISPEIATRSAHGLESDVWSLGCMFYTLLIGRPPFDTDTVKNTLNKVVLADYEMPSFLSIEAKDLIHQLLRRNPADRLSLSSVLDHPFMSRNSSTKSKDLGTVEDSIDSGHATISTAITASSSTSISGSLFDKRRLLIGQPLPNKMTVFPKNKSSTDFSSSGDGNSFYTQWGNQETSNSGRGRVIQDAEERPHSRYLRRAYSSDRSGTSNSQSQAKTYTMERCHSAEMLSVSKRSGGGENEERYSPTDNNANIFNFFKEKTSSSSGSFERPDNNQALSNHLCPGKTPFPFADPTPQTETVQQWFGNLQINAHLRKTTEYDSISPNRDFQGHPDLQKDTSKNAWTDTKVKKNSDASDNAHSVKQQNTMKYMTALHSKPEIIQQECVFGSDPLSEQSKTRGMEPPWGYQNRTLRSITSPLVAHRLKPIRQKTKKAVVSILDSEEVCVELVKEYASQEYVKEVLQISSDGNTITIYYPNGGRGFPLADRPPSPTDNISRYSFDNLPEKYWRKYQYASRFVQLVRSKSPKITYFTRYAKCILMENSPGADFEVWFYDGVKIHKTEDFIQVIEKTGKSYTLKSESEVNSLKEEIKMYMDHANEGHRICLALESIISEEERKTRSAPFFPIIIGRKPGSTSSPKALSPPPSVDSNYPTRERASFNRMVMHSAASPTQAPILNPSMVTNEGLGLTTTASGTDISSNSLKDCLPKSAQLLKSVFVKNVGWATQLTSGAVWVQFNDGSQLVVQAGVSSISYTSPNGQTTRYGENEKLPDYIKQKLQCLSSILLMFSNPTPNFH
Sequence of CDK1/CyclinB (h) (P06493 whole entry): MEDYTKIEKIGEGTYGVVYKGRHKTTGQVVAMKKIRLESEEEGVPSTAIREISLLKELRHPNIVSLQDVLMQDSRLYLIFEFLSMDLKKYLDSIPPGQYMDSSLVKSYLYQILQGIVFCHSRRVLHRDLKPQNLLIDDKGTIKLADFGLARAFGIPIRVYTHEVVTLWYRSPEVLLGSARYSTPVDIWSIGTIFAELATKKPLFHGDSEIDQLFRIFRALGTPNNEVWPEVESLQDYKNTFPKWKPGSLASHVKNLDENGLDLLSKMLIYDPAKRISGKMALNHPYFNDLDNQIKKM
Sequence of CDK1/CyclinB (h) (P14635 whole entry partner): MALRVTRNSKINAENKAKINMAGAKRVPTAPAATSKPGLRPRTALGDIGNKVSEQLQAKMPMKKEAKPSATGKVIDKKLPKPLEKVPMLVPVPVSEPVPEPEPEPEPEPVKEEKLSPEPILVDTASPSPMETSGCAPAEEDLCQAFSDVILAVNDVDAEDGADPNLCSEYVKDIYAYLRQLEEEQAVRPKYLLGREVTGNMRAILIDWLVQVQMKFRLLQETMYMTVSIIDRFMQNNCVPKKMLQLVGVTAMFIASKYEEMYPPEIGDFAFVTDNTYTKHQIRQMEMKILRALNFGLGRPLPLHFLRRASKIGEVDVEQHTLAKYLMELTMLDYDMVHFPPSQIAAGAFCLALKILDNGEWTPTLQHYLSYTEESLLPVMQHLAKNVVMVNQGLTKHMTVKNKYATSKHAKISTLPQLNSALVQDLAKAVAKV

With `O=C1Nc2ncnc3c2C1=CNc1cc(ccc1Cl)OCCCCC(=O)N1CCN3CC1` (mixture of isomers) [Compound 13], the IC50 with DU-145, with SKOV3, with U87MG, at AuroraB (h), in the assay on MDA/MB231 and in the assay on HCT-116 was greater than 10 µM each time. The IC50 with MCF-7, in the assay with SK-N-SH, in the assay on A431, on PLK4 (h), in the assay on HT-29 and with H460 was greater than 10 µM throughout. Further, the IC50 in the assay on Colo205, in the assay on A549, with PC-3 and in the assay with A2780 was greater than 10 µM throughout.
As to `O=C1Nc2ncnc3c2C1=CNc1ccc(cc1)S(=O)(=O)NCCCCC(=O)N1CCN3CC1` (mixture of isomers) [Compound 15], the IC50 in the assay with DU-145, in the assay on SKOV3, in the assay with U87MG, at AuroraB (h), in the assay on MDA/MB231 and in the assay on HCT-116 was greater than 10 µM throughout. Moreover, the IC50 is greater than 10 µM in the assay with MCF-7; greater than 10 µM in the assay on SK-N-SH; greater than 10 µM with A431; 5.5 µM at PLK4 (h); greater than 10 µM in the assay on HT-29; greater than 10 µM in the assay on H460. For the same compound, the IC50 with Colo205, with A549, in the assay on PC-3 and with A2780 was greater than 10 µM each time.
`CC(C)N1CCCC(=O)N2CCN(CC2)c2ncnc3c2C(=CNc2ccc(F)c(c2)C1)C(=O)N3` (mixture of isomers) [Compound 30]: the “pIC50 DU-145” value in the assay with DU-145 is listed as less than 5. Moreover, the “pIC50 SKOV3” value with SKOV3 was less than 5. Further, in the assay with MCF-7, the “pIC50 MCF-7” value is reported as less than 5. Also, in the assay on SK-N-SH, the “pIC50 SK-N-SH” value was less than 5. Also, the “pIC50 A431” value in the assay with A431 is less than 5. Further, the “PLK4 pIC50” value on PLK4 (h) is listed as less than 5. In addition, the “pIC50 HT-29” value in the assay on HT-29 is listed as less than 5. Also, the “pIC50 H460” value with H460 is on record as less than 5. The “pIC50 Colo205” value in the assay with Colo205 is less than 5. Moreover, in the assay with A549, the “pIC50 A549” value was less than 5. The “pIC50 PC-3” value in the assay with PC-3 was less than 5.
Take `COc1ccc2cc1OCCCC(=O)N(C(C)C)CCCCN(C)c1ncnc3c1C(=CN2)C(=O)N3` (mixture of isomers) [Compound 33]: the “pIC50 DU-145” value with DU-145 is given as less than 5. The “GSK3B pIC50” value on GSK3β (h) is listed as 5.33. Further, the “pIC50 SKOV3” value in the assay on SKOV3 was less than 5. In addition, the “AuroraB pIC50” value on AuroraB (h) amounted to 5. In addition, the “CDK1 pIC50” value at CDK1/CyclinB (h) is 5.14. Moreover, the “pIC50 MCF-7” value with MCF-7 is given as 4.99. Also, the “pIC50 SK-N-SH” value in the assay on SK-N-SH came to 5.27. Further, the “pIC50 A431” value in the assay with A431 was less than 5. Besides, the “PLK4 pIC50” value on PLK4 (h) was 5.27. In addition, the “pIC50 HT-29” value in the assay on HT-29 is listed as less than 5. In the assay with H460, the “pIC50 H460” value is recorded as less than 5. The “pIC50 Colo205” value with Colo205 is reported as less than 5. Further, the “pIC50 A549” value in the assay with A549 is on record as less than 5. Moreover, the “pIC50 PC-3” value in the assay on PC-3 is on record as less than 5.
In the case of `COc1ccc2cc1OCCCC(=O)N1CCN(CC1)c1ncnc3c1/C(=C/N2)C(=O)N3` [Compound 17], the IC50 with DU-145 was greater than 10 µM; in the assay with SKOV3, 4.68 µM; in the assay with U87MG, 7.76 µM; on AuroraB (h) it was greater than 10 µM; with MDA/MB231, greater than 10 µM; with HCT-116, greater than 10 µM. In addition, the IC50 is 8.13 µM in the assay with MCF-7; 3.31 µM in the assay with SK-N-SH; greater than 10 µM in the assay on A431; 1.62 µM on PLK4 (h); greater than 10 µM in the assay on HT-29; greater than 10 µM in the assay on H460. Also, the IC50 in the assay on Colo205 was greater than 10 µM; in the assay with A549 it was 3.47 µM; with PC-3 it was 10.7 µM; with A2780 it was greater than 10 µM.
Regarding `CC(C)N1CCCCCC(=O)N2CCN(CC2)c2ncnc3c2/C(=C/Nc2ccc(F)c(c2)C1)C(=O)N3` [Compound 28], the IC50 in the assay on DU-145, on GSK3β (h) (read-out: GSK3B pIC50 (converted)), with SKOV3, at AuroraB (h), at CDK1/CyclinB (h) (read-out: CDK1 pIC50 (converted)) and with MCF-7 was greater than 10 µM throughout. Also, the IC50 in the assay on SK-N-SH, in the assay on A431, on PLK4 (h), in the assay on HT-29, in the assay with H460 and with Colo205 was greater than 10 µM throughout. The IC50 in the assay with A549 and with PC-3 was greater than 10 µM in each case.
On to `COc1ccc2cc1OCCCC(=O)N(C(C)C)CCN(C)c1ncnc3c1/C(=C/N2)C(=O)N3` [Compound 32], for which the IC50 in the assay with DU-145 is 3.98 µM; in the assay with SKOV3 it was 3.31 µM; in the assay on MCF-7, 1.58 µM; in the assay with SK-N-SH, 1.62 µM; with A431, 1.32 µM; at PLK4 (h), 1.05 µM. The IC50 in the assay on HT-29 was 2.51 µM; with H460, 2.34 µM; with Colo205 it was 2.04 µM; with A549, 2.14 µM; in the assay with PC-3 it was 1 µM.
